Results: article PMC12186844 (ACS Chemical Neuroscience, 2025)
Substitutions are numbered along the chain they refer to. Where two headings read alike, the source gives them in different places.

What was measured:
D2LR = D2LR (Homo sapiens, UniProt P14416); experiment: whole cell [3H]raclopride binding assay
Method: The binding reaction was conducted in HBSS for 1 h at 37 °C. The adherent cells were washed two times with cold 0.9% NaCl solution, and 100 μL/well scintilation liquid was added to the plate. The remaining radioactivity was detected in a MicroBeta counter.

SNAP-D2SR I128^3.46A [1] = biological target: T1, SNAP-D2SR I128^3.46A (Homo sapiens, UniProt P14416, I128A); experiment: cell membrane [3H]spiperone assay
T1 sequence (P14416 1-414 isoform P14416-2 I128A): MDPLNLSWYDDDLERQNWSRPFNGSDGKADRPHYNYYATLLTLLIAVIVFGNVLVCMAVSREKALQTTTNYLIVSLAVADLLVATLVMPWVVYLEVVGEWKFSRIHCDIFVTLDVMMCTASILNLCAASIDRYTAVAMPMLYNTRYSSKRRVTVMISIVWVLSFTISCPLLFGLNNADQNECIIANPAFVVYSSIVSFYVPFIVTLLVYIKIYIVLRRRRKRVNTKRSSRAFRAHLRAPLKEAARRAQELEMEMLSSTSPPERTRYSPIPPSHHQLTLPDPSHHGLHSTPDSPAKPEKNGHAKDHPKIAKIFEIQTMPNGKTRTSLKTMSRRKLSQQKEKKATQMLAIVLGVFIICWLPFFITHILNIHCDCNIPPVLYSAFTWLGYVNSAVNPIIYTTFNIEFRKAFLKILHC
Method: (§1) Flp-In-CHO cells stably expressing the wild-type or mutant DRs were grown to 90% confluence in 175 cm^2 cell culture flasks. The cells were harvested in PBS containing 2 mM EDTA and centrifuged at 300g for 3 min. The resulting pellet was resuspended in ice-cold assay buffer (20 mM HEPES, 100 mM NaCl, 6 mM MgCl2, 1 mM EGTA, and 1 mM EDTA, pH 7.4), and the centrifugation step was repeated. The intact cell pellet was then resuspended in assay buffer and homogenized using a Polytron homogenizer. After centrifugation (1000g, 10 min), the pellet was discarded, and the supernatant was recentrifuged at 30,000g for 1 h at 4 °C using a Sorvall Evolution RC ultracentrifuge (Thermo Scientific). The resulting pellet was resuspended in assay buffer and stored in 250 μL aliquots at −80 °C. Membrane protein concentration was determined using a Pierce’s BCA protein assay kit (Thermo Fisher, Melbourne).
(§2) [^3H]­Spiperone binding experiments using cell membranes were conducted in a 200 μL reaction volume in assay buffer (20 mM HEPES, 100 mM NaCl, 6 mM MgCl2, 1 mM EGTA, and 1 mM EDTA, pH 7.4) containing 100 μM GppNHp and 0.1% ascorbic acid in 96-well plates. […] In all cases, nonspecific binding was determined in the presence of 10 μM haloperidol. […] Filter bound radioactivity was detected as a chemiluminescence after the addition of MicroScint-20 (Revvity) in a MicroBeta plate counter (Revvity). […]

SNAP-D2SR WT = SNAP-D2SR WT (Homo sapiens, UniProt P14416); experiment: functional cAMP assay, BRET biosensor; type: cell-based
Method: (§3) Flp-In-CHO cells stably coexpressing the CAMYEL biosensor and DRs were plated into white 96-well CulturPlates (Revvity) and grown overnight. The cells were equilibrated in Hank’s balanced salt solution (HBSS) at 37 °C (or 25 °C when indicated) before starting the experiment. The cells were costimulated with the agonists and 10 μM forskolin for the indicated time frames when the BRET readings were captured. Coelenterazine (Nanolight Technology, AZ) was added at a final concentration of 5 μM at least 3 min prior to measurement. […] Net BRET was determined by subtraction of the vehicle control coadded with 10 μM forskolin.
(§4) Dose–response curves were fitted using the following three-parameter equation: response=bottom+top−bottom/1+10^(logEC50−log[A]) 5 where top and bottom represent the maximal and minimal asymptote of the dose response curve, [A] is the molar concentration of the agonist, and EC50 is the molar concentration of the agonist required to give a response half-way between bottom and top.

SNAP-D2SR I128^3.46A [2] = biological target: T1, SNAP-D2SR I128^3.46A; experiment: functional cAMP assay, BRET biosensor; type: cell-based
Method: as §3, §4

SNAP-D2SR V91^2.61A = SNAP-D2SR V91^2.61A (Homo sapiens, UniProt P14416, V91A); experiment: functional cAMP assay, BRET biosensor; type: cell-based
Method: (§5) Flp-In-CHO cells stably coexpressing the CAMYEL biosensor and DRs were plated into white 96-well CulturPlates (Revvity) and grown overnight. The cells were equilibrated in Hank’s balanced salt solution (HBSS) at 37 °C (or 25 °C when indicated) before starting the experiment. The cells were costimulated with the agonists and 10 μM forskolin for the indicated time frames when the BRET readings were captured. Coelenterazine (Nanolight Technology, AZ) was added at a final concentration of 5 μM at least 3 min prior to measurement. […] Net BRET was determined by subtraction of the vehicle control coadded with 10 μM forskolin. For phenoxybenzamine alkylation experiments, the cells were treated with 0.1, 0.3, or 1 μM phenoxybenzamine (Sigma-Aldrich) diluted in HBSS and equilibrated at 37 °C for 30 min prior to the commencement of the assay.
as §4

SNAP-D2SR F408^8.54A = SNAP-D2SR F408^8.54A (Homo sapiens, UniProt P14416, F437A); experiment: cell membrane [3H]spiperone assay
Method: as §1, §2

SNAP-D2SR C118^3.36A = biological target: T2, SNAP-D2SR C118^3.36A (Homo sapiens, UniProt P14416, C118A); experiment: functional cAMP assay, BRET biosensor; type: cell-based
T2 sequence (P14416 1-414 isoform P14416-2 C118A): T1 sequence (P14416 1-414 isoform P14416-2 I128A) with C118A, A128I
Method: as §3, §4

SNAP-D2SR F353^6.44A = SNAP-D2SR F353^6.44A (Homo sapiens, UniProt P14416, F382A); experiment: cell membrane [3H]spiperone assay
Method: as §1, §2

SNAP-D2SR L94^2.64A = SNAP-D2SR L94^2.64A (Homo sapiens, UniProt P14416, L94A); experiment: functional cAMP assay, BRET biosensor; type: cell-based
Method: as §5, §4

[3] = cooperativity with [3H]raclopride
[4] = cooperativity with aripiprazole
[5] = cooperativity with bromocriptine
[6] = orthosteric ligand [3H]raclopride
[7] = orthosteric ligand aripiprazole
[8] = orthosteric ligand bromocriptine
[9] = titration of D2 PAM2 vs [3H]raclopride
[10] = titration, cooperativity with [3H]raclopride
[11] = read-out: D2 PAM2 KB (converted)

Chain of D2LR (P14416 whole entry): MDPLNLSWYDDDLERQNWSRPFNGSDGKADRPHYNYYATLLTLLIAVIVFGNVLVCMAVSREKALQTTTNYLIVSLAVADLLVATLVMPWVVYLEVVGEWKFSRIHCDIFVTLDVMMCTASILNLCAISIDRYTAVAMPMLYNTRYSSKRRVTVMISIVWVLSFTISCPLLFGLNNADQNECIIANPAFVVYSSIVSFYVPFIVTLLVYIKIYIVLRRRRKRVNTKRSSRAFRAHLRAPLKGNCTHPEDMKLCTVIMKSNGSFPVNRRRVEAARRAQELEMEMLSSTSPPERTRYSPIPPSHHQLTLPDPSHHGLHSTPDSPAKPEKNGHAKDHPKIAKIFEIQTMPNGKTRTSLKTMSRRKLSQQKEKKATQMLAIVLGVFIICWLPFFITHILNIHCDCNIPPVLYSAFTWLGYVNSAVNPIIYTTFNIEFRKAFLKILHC
Chain of SNAP-D2SR L94^2.64A (P14416 1-414 isoform P14416-2 L94A): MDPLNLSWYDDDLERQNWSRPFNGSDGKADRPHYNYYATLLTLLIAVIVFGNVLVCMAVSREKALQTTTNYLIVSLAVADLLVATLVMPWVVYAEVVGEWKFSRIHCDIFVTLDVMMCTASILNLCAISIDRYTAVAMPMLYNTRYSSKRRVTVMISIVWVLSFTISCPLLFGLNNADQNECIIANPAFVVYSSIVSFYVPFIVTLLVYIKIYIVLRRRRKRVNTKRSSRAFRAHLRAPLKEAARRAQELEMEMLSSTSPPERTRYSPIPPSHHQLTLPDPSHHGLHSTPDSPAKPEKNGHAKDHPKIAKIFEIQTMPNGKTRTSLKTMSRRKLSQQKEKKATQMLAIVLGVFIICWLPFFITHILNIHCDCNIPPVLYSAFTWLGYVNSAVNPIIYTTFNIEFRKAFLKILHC
Chain of SNAP-D2SR V91^2.61A (P14416 1-414 isoform P14416-2 V91A): as the sequence (P14416 1-414 isoform P14416-2 L94A) above, with V91A, A94L counted along it
Chain of SNAP-D2SR WT (P14416 1-414 isoform P14416-2): as the sequence (P14416 1-414 isoform P14416-2 L94A) above, with A94L counted along it
Chain of SNAP-D2SR F408^8.54A (P14416 1-414 isoform P14416-2 F408A): as the sequence (P14416 1-414 isoform P14416-2 L94A) above, with A94L, F408A counted along it
Chain of SNAP-D2SR F353^6.44A (P14416 1-414 isoform P14416-2 F353A): as the sequence (P14416 1-414 isoform P14416-2 L94A) above, with A94L, F353A counted along it

fold inhibition of [3H]raclopride affinity (D2LR): 2.43 fold | Logα (D2LR; cooperativity with S-(3)-PPP): 0.40 ± 0.11 | α (D2LR; cooperativity with S-(3)-PPP): 2.5 | Logα (D2LR; [3]): -0.39 ± 0.12 | α (D2LR; [3]): −0.39 | α (D2LR; cooperativity with [3H]raclopride, listed as D2 PAM): 0.41 | Logα (D2LR; cooperativity with apomorphine): 1.05 ± 0.11 | α (D2LR; cooperativity with apomorphine): 11 | Logα (D2LR; [4]): 0.43 ± 0.10 | α (D2LR; [4]): 2.7 | Logα (D2LR; [5]): 0.27 ± 0.07 | α (D2LR; [5]): 1.9 | Logα (D2LR; cooperativity with dopamine): 1.33 ± 0.10 | α (D2LR; cooperativity with dopamine): 22 | α (D2LR; cooperativity with dopamine, listed as D2 PAM): 21 | Logα (D2LR; cooperativity with lisuride): 0.55 ± 0.04 | α (D2LR; cooperativity with lisuride): 3.5 | Logα (D2LR; cooperativity with pergolide): 1.24 ± 0.14 | α (D2LR; cooperativity with pergolide): 17 | Logα (D2LR; cooperativity with pramipexole): 1.21 ± 0.11 | α (D2LR; cooperativity with pramipexole): 16 | Logα (D2LR; cooperativity with ropirinole): 1.14 ± 0.11 | α (D2LR; cooperativity with ropirinole): 14 | Logα (D2LR; cooperativity with rotigotine): 1.37 ± 0.09 | α (D2LR; cooperativity with rotigotine): 23 | Kb (D2LR; orthosteric ligand S-(3)-PPP): 5.12 µM | pKB (D2LR; orthosteric ligand S-(3)-PPP): 5.29 ± 0.05 | Kb (D2LR; [6]): 5.5 µM | pKB (D2LR; [6]): 5.26 ± 0.10 | Kb (D2LR; orthosteric ligand apomorphine): 6.31 µM | pKB (D2LR; orthosteric ligand apomorphine): 5.20 ± 0.10 | Kb (D2LR; [7]): 7.24 µM | pKB (D2LR; [7]): 5.14 ± 0.04 | Kb (D2LR; [8]): 8.12 µM | pKB (D2LR; [8]): 5.09 ± 0.13 | Kb (D2LR; orthosteric ligand dopamine): 5.5 µM | pKB (D2LR; orthosteric ligand dopamine): 5.26 ± 0.10 | Kb (D2LR; orthosteric ligand lisuride): 5.62 µM | pKB (D2LR; orthosteric ligand lisuride): 5.25 ± 0.07 | Kb (D2LR; orthosteric ligand pergolide): 8.32 µM | pKB (D2LR; orthosteric ligand pergolide): 5.08 ± 0.10 | Kb (D2LR; orthosteric ligand pramipexole): 6.92 µM | pKB (D2LR; orthosteric ligand pramipexole): 5.16 ± 0.11 | Kb (D2LR; orthosteric ligand ropirinole): 8.71 µM | pKB (D2LR; orthosteric ligand ropirinole): 5.06 ± 0.06 | Kb (D2LR; orthosteric ligand rotigotine): 4.68 µM | pKB (D2LR; orthosteric ligand rotigotine): 5.33 ± 0.14 | Kb (D2LR; read-out: Kb, affinity for the unoccupied receptor, DA competition, allosteric ternary complex model): 5.5 µM | Kb (D2LR; [9]): 5.5 µM | pKb (D2LR; [9]): 5.26 | Logα (D2LR; [10]): -0.37 | α (D2LR; [10]): 0.43 | fold shift + 10 μM PAM (SNAP-D2SR I128^3.46A [1]; shift of DA IC50): 1.1 fold | ΔpIC50 + 10 μM PAM (SNAP-D2SR I128^3.46A [1]; shift of DA pIC50): 0.06 ± 0.13 | D2 PAM2 log τ (SNAP-D2SR WT): 0.06 ± 0.05 | D2 PAM2 pKB (SNAP-D2SR WT): 5.02 ± 0.14 | D2 PAM2 τ (SNAP-D2SR WT): 1 | Logτ (SNAP-D2SR WT; S13): 0.14 ± 0.10 | pKB (SNAP-D2SR WT; S13): 4.93 ± 0.22 | τ (SNAP-D2SR WT; S13): 1.38 | Kb (SNAP-D2SR WT; S13, read-out: KB): 11.7 µM | Logαβ (SNAP-D2SR WT; S13, with DA): 1.60 ± 0.25 | αβ (SNAP-D2SR WT; S13, with DA): 39.8 | Kb (SNAP-D2SR WT; Table 2, read-out: D2 PAM2 KB (converted)): 9.5 µM | D2 PAM2 log αβ (SNAP-D2SR WT; with DA): 1.25 ± 0.14 | D2 PAM2 αβ (SNAP-D2SR WT; with DA): 18 | D2 PAM2 log τ (SNAP-D2SR I128^3.46A [2]): –3 | D2 PAM2 pKB (SNAP-D2SR I128^3.46A [2]): 4.90 ± 0.18 | Kb (SNAP-D2SR I128^3.46A [2]; [11]): 13 µM | D2 PAM2 log αβ (SNAP-D2SR I128^3.46A [2]; with DA): 1.63 ± 0.17 | D2 PAM2 αβ (SNAP-D2SR I128^3.46A [2]; with DA): 43 | Kb (SNAP-D2SR V91^2.61A): 2.6 µM | Logτ (SNAP-D2SR V91^2.61A): -0.23 ± 0.08 | pKB (SNAP-D2SR V91^2.61A): 5.59 ± 0.21 | τ (SNAP-D2SR V91^2.61A): 0.59 | Logαβ (SNAP-D2SR V91^2.61A; with DA): 0.93 ± 0.18 | αβ (SNAP-D2SR V91^2.61A; with DA): 8.5 | fold shift + 10 μM PAM (SNAP-D2SR F408^8.54A; shift of DA IC50): 0.85 fold | ΔpIC50 + 10 μM PAM (SNAP-D2SR F408^8.54A; shift of DA pIC50): –0.07 ± 0.14 | D2 PAM2 log τ (SNAP-D2SR C118^3.36A): –0.24 ± 0.05 | D2 PAM2 pKB (SNAP-D2SR C118^3.36A): 4.82 ± 0.15 | D2 PAM2 τ (SNAP-D2SR C118^3.36A): 0.57 | Kb (SNAP-D2SR C118^3.36A; [11]): 15 µM | D2 PAM2 log αβ (SNAP-D2SR C118^3.36A; with DA): 1.30 ± 0.13 | D2 PAM2 αβ (SNAP-D2SR C118^3.36A; with DA): 20 | fold shift + 10 μM PAM (SNAP-D2SR F353^6.44A; shift of DA IC50): 1.3 fold | ΔpIC50 + 10 μM PAM (SNAP-D2SR F353^6.44A; shift of DA pIC50): 0.10 ± 0.12 | Kb (SNAP-D2SR L94^2.64A): 12.6 µM | Logτ (SNAP-D2SR L94^2.64A): -0.43 ± 0.07 | pKB (SNAP-D2SR L94^2.64A): 4.90 ± 0.12 | τ (SNAP-D2SR L94^2.64A): 0.37 | Logαβ (SNAP-D2SR L94^2.64A; with DA): 1.54 ± 0.10 | αβ (SNAP-D2SR L94^2.64A; with DA): 34.7
SMILES: COc1cc(CO)c(F)cc1C(=O)n1ccc2c(F)cccc21 [D2 PAM2, [5-fluoro-4-(hydroxymethyl)-2-methoxyphenyl]-(4-fluoro-1H-indol-1-yl)methanone]
